From patent US20250376461A1, “INDAZOLE DERIVATIVES FOR TREATING TRPM3-MEDIATED DISORDERS” (Katholieke Universiteit Leuven, priority 2022, published 2025)

biological target: T1, mouse TRPM3α2 (mTRPM3) ion channel (Mus musculus, UniProt J9SQF3); test: TRPM3 ion channel driven Ca2+ uptake, Fluo-4 AM assay, mTRPM3alpha2 overexpressing flip-in HEK293 cells stimulated with pregnenolone sulfate (50 μM); format: cell-based; conditions: mTRPM3 overexpressing HEK293 cells stimulated with pregnenolone sulfate (50 μM), activity ranges A, B, C
T1 construct: expressed in transfected cells; host or cells: flip-in HEK293
T1 sequence (J9SQF3 1-1709 isoform J9SQF3-12): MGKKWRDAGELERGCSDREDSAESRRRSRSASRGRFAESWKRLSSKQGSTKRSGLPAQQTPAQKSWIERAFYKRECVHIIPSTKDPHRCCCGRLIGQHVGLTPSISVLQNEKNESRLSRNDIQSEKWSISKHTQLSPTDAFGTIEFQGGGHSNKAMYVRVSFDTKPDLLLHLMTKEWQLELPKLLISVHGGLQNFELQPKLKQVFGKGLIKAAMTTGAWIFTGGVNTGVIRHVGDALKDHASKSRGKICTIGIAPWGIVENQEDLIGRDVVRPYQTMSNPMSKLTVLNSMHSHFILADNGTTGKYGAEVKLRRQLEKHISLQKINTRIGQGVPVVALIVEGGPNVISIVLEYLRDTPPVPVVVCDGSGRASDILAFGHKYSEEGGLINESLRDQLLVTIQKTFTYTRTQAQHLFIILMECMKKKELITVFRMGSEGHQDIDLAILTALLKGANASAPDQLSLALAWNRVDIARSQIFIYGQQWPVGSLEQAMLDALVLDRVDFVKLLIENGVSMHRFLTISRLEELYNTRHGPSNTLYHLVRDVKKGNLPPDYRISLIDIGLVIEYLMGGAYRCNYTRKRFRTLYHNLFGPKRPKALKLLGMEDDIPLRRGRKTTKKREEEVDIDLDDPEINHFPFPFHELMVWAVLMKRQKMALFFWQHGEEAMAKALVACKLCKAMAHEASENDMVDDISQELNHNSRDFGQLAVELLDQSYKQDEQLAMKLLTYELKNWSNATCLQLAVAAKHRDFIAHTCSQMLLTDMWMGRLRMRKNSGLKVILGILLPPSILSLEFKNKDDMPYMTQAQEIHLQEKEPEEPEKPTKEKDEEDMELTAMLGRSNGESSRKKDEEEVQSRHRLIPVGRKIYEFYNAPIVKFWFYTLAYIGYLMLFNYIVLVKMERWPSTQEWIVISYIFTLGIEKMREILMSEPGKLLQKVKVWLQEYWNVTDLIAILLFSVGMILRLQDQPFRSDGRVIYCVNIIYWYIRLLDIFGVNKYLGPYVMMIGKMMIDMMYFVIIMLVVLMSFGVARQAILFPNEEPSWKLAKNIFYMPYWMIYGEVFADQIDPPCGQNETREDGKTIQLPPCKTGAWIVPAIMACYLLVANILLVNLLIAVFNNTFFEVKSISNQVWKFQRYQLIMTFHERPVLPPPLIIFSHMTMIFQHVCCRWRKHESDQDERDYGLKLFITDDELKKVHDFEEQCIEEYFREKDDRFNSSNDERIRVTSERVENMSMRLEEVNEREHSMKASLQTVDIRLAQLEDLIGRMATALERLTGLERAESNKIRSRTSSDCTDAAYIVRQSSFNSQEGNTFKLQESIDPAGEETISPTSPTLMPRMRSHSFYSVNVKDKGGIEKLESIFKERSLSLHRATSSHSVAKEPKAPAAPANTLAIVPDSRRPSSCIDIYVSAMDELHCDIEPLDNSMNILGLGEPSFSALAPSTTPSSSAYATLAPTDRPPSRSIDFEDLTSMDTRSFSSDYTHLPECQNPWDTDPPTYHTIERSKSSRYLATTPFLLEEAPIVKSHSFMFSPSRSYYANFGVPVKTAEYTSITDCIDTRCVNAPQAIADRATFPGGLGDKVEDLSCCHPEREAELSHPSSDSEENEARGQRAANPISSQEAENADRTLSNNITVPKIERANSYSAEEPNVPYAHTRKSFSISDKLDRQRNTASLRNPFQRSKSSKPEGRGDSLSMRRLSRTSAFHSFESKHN
Method in brief: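 Flip-in HEK293 cells overexpressing mTRPM3α2, loaded with Fluo-4 AM, added at ±2000 cells/well to plates holding compound plus 50 μM pregnenolone sulfate in Ca2+-containing Krebs buffer. Fluorescence (ex 485/em 535 nm) read immediately. Percent inhibition normalised between vehicle and positive-control inhibitor; IC50 derived.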

Row | IC50 | SMILES
1 | 1 to 20 µM | Cn1nc2ccc(OCc3cccnc3C(F)(F)F)cc2c1C(=O)NC(C)(C)CO [Cpd 076, N-(1-hydroxy-2-methylpropan-2-yl)-2-methyl-5-{[2-(trifluoromethyl)pyridin-3-yl]methoxy}-2H-indazole-3-carboxamide]
2 | 1 to 20 µM | Cn1nc2ccc(OCc3cccnc3C(F)(F)F)cc2c1C(=O)NC1CCN(CC(F)(F)F)C1 (centres unmarked) [Cpd 077, 2-methyl-N-[1-(2,2,2-trifluoroethyl)pyrrolidin-3-yl]-5-{[2-(trifluoromethyl)pyridin-3-yl]methoxy}-2H-indazole-3-carboxamide]
3 | 1 to 20 µM | CN(C)C1(CNC(=O)c2c3cc(OCc4ccccc4)ccc3nn2C)CCC1 [Cpd 078, 5-(benzyloxy)-N-{[1-(dimethylamino)cyclobutyl]methyl}-2-methyl-2H-indazole-3-carboxamide]
4 | > 20 µM | Cn1nccc1COc1ccc2nn(C)c(C(=O)NC3(CCO)CCC3)c2c1 [Cpd 079, N-[1-(2-hydroxyethyl)cyclobutyl]-2-methyl-5-[(1-methyl-1H-pyrazol-5-yl)methoxy]-2H-indazole-3-carboxamide]
5 | 1 to 20 µM | CN1CC(NC(=O)c2c3cc(OCc4cccnc4C(F)(F)F)ccc3nn2C)C(F)(F)C1 (centres unmarked) [Cpd 081, N-(4,4-difluoro-1-methylpyrrolidin-3-yl)-2-methyl-5-{[2-(trifluoromethyl)pyridin-3-yl]methoxy}-2H-indazole-3-carboxamide]
6 | 1 to 20 µM | C[C@H](NC(=O)c1c2cc(OCc3ccccn3)ccc2nn1C)C(N)=O [Cpd 082, (2S)-2-({2-methyl-5-[(pyridin-2-yl)methoxy]-2H-indazol-3-yl}formamido)propanamide]
7 | 1 to 20 µM | C[C@@H](NC(=O)c1c2cc(OCc3ccccn3)ccc2nn1C)C(N)=O [Cpd 083, (2R)-2-({2-methyl-5-[(pyridin-2-yl)methoxy]-2H-indazol-3-yl}formamido)propanamide]
8 | 1 to 20 µM | CN1CCC(NC(=O)c2c3cc(OCc4ccccn4)ccc3nn2C)CC1 [Cpd 084, 2-methyl-N-(1-methylpiperidin-4-yl)-5-[(pyridin-2-yl)methoxy]-2H-indazole-3-carboxamide]
9 | 1 to 20 µM | Cn1nc2ccc(OCc3ccccn3)cc2c1C(=O)NC1(C(N)=O)CCOCC1 [Cpd 085, N-(4-carbamoyloxan-4-yl)-2-methyl-5-[(pyridin-2-yl)methoxy]-2H-indazole-3-carboxamide]
10 | 1 to 20 µM | Cn1nc2ccc(OCc3ccccn3)cc2c1C(=O)NC1(CO)CCC1 [Cpd 086, N-[1-(hydroxymethyl)cyclobutyl]-2-methyl-5-[(pyridin-2-yl)methoxy]-2H-indazole-3-carboxamide]
11 | 1 to 20 µM | Cn1nc2ccc(OCc3cccnc3C(F)(F)F)cc2c1C(=O)NC1(C(N)=O)COC1 [Cpd 087, N-(3-carbamoyloxetan-3-yl)-2-methyl-5-{[2-(trifluoromethyl)pyridin-3-yl]methoxy}-2H-indazole-3-carboxamide]
12 | > 20 µM | CN1CC(NC(=O)c2c3cc(OCc4ccnn4C)ccc3nn2C)C(F)(F)C1 (centres unmarked) [Cpd 088, N-(4,4-difluoro-1-methylpyrrolidin-3-yl)-2-methyl-5-[(1-methyl-1H-pyrazol-5-yl)methoxy]-2H-indazole-3-carboxamide]
13 | < 1 µM | Cc1ncsc1COc1ccc2nn(C)c(C(=O)NCc3cccc(O)n3)c2c1 [Cpd 089, N-[(6-hydroxypyridin-2-yl)methyl]-2-methyl-5-[(4-methyl-1,3-thiazol-5-yl)methoxy]-2H-indazole-3-carboxamide]
14 | 1 to 20 µM | Cn1nc2ccc(OCc3cccnc3C(F)(F)F)cc2c1C(=O)NC1CCN(CCO)C1=O (centres unmarked) [Cpd 090, N-[1-(2-hydroxyethyl)-2-oxopyrrolidin-3-yl]-2-methyl-5-{[2-(trifluoromethyl)pyridin-3-yl]methoxy}-2H-indazole-3-carboxamide]
15 | 1 to 20 µM | Cn1nc2ccc(OCc3ccccc3)cc2c1C(=O)NC(CO)C(F)(F)F (centres unmarked) [Cpd 091, 5-(benzyloxy)-2-methyl-N-(1,1,1-trifluoro-3-hydroxypropan-2-yl)-2H-indazole-3-carboxamide]
16 | 1 to 20 µM | CN1CCC(NC(=O)c2c3cc(OCc4ccccc4)ccc3nn2C)C1 (centres unmarked) [Cpd 092, 5-(benzyloxy)-2-methyl-N-(1-methylpyrrolidin-3-yl)-2H-indazole-3-carboxamide]
17 | 1 to 20 µM | CN1CCC(NC(=O)c2c3cc(OCc4ccccc4F)ccc3nn2C)CC1 [Cpd 093, 5-[(2-fluorophenyl)methoxy]-2-methyl-N-(1-methylpiperidin-4-yl)-2H-indazole-3-carboxamide]
18 | 1 to 20 µM | Cn1nc2ccc(OCc3ccccc3F)cc2c1C(=O)NC1(CO)CCC1 [Cpd 094, 5-[(2-fluorophenyl)methoxy]-N-[1-(hydroxymethyl)cyclobutyl]-2-methyl-2H-indazole-3-carboxamide]
19 | 1 to 20 µM | Cn1nc2ccc(OCc3ccccc3F)cc2c1C(=O)NC1(CO)CC1 [Cpd 095, 5-[(2-fluorophenyl)methoxy]-N-[1-(hydroxymethyl)cyclopropyl]-2-methyl-2H-indazole-3-carboxamide]

Row | IC50 | SMILES
20 | 1 to 20 µM | Cn1nc2ccc(OCc3ccccc3F)cc2c1C(=O)NC1(CO)CCOCC1 [Cpd 096, 5-[(2-fluorophenyl)methoxy]-N-[4-(hydroxymethyl)oxan-4-yl]-2-methyl-2H-indazole-3-carboxamide]
21 | < 1 µM | Cn1nc2ccc(OCc3ccccc3F)cc2c1C(=O)NC1(C(N)=O)CCOCC1 [Cpd 097, N-(4-carbamoyloxan-4-yl)-5-[(2-fluorophenyl)methoxy]-2-methyl-2H-indazole-3-carboxamide]
22 | 1 to 20 µM | C[C@@H](NC(=O)c1c2cc(OCc3ccccc3F)ccc2nn1C)C(N)=O [Cpd 098, (2R)-2-({5-[(2-fluorophenyl)methoxy]-2-methyl-2H-indazol-3-yl}formamido)propanamide]
23 | < 1 µM | C[C@H](NC(=O)c1c2cc(OCc3ccccc3F)ccc2nn1C)C(N)=O [Cpd 099, (2S)-2-({5-[(2-fluorophenyl)methoxy]-2-methyl-2H-indazol-3-yl}formamido)propanamide]
24 | 1 to 20 µM | Cn1nc2ccc(OCc3ccccn3)cc2c1C(=O)NC1(CO)COC1 [Cpd 100, N-[3-(hydroxymethyl)oxetan-3-yl]-2-methyl-5-[(pyridin-2-yl)methoxy]-2H-indazole-3-carboxamide]
25 | 1 to 20 µM | Cc1ncsc1COc1ccc2nn(C)c(C(=O)N[C@@H](C)C(N)=O)c2c1 [Cpd 101, (2S)-2-({2-methyl-5-[(4-methyl-1,3-thiazol-5-yl)methoxy]-2H-indazol-3-yl}formamido)propanamide]
26 | > 20 µM | Cn1nc2ccc(OCc3ccccn3)cc2c1C(=O)NC1CCOCC1 [Cpd 102, 2-methyl-N-(oxan-4-yl)-5-[(pyridin-2-yl)methoxy]-2H-indazole-3-carboxamide]
27 | 1 to 20 µM | Cc1ncc(COc2ccc3nn(C)c(C(=O)NC(C)(C)C(N)=O)c3c2)s1 [Cpd 103, 2-methyl-2-({2-methyl-5-[(2-methyl-1,3-thiazol-5-yl)methoxy]-2H-indazol-3-yl}formamido)propanamide]
28 | > 20 µM | Cn1nc2ccc(OCc3ccccn3)cc2c1C(=O)NC1(CO)CC1 [Cpd 104, N-[1-(hydroxymethyl)cyclopropyl]-2-methyl-5-[(pyridin-2-yl)methoxy]-2H-indazole-3-carboxamide]
29 | 1 to 20 µM | Cc1ncc(COc2ccc3nn(C)c(C(=O)NC4(CO)COC4)c3c2)s1 [Cpd 105, N-[3-(hydroxymethyl)oxetan-3-yl]-2-methyl-5-[(2-methyl-1,3-thiazol-5-yl)methoxy]-2H-indazole-3-carboxamide]
30 | 1 to 20 µM | Cn1nc2ccc(OCc3ccccn3)cc2c1C(=O)NC1(CO)CCOCC1 [Cpd 106, N-[4-(hydroxymethyl)oxan-4-yl]-2-methyl-5-[(pyridin-2-yl)methoxy]-2H-indazole-3-carboxamide]
31 | 1 to 20 µM | Cc1ncsc1COc1ccc2nn(C)c(C(=O)NC3(C(N)=O)CCOCC3)c2c1 [Cpd 107, N-(4-carbamoyloxan-4-yl)-2-methyl-5-[(4-methyl-1,3-thiazol-5-yl)methoxy]-2H-indazole-3-carboxamide]
32 | 1 to 20 µM | Cc1ncc(COc2ccc3nn(C)c(C(=O)NC4(CO)CCC4)c3c2)s1 [Cpd 108, N-[1-(hydroxymethyl)cyclobutyl]-2-methyl-5-[(2-methyl-1,3-thiazol-5-yl)methoxy]-2H-indazole-3-carboxamide]
33 | 1 to 20 µM | Cc1ncsc1COc1ccc2nn(C)c(C(=O)NC3(CO)COC3)c2c1 [Cpd 109, N-[3-(hydroxymethyl)oxetan-3-yl]-2-methyl-5-[(4-methyl-1,3-thiazol-5-yl)methoxy]-2H-indazole-3-carboxamide]
34 | 1 to 20 µM | Cc1ncsc1COc1ccc2nn(C)c(C(=O)NC(C)(C)C(N)=O)c2c1 [Cpd 110, 2-methyl-2-({2-methyl-5-[(4-methyl-1,3-thiazol-5-yl)methoxy]-2H-indazol-3-yl}formamido)propanamide]
35 | > 20 µM | Cc1ncc(COc2ccc3nn(C)c(C(=O)NC4CCN(C)CC4)c3c2)s1 [Cpd 111, 2-methyl-5-[(2-methyl-1,3-thiazol-5-yl)methoxy]-N-(1-methylpiperidin-4-yl)-2H-indazole-3-carboxamide]
36 | > 20 µM | Cc1ncsc1COc1ccc2nn(C)c(C(=O)NC3CCN(C)CC3)c2c1 [Cpd 112, 2-methyl-5-[(4-methyl-1,3-thiazol-5-yl)methoxy]-N-(1-methylpiperidin-4-yl)-2H-indazole-3-carboxamide]
37 | 1 to 20 µM | Cc1ncsc1COc1ccc2nn(C)c(C(=O)N[C@H](CO)C(N)=O)c2c1 [Cpd 113, (2R)-3-hydroxy-2-({2-methyl-5-[(4-methyl-1,3-thiazol-5-yl)methoxy]-2H-indazol-3-yl}formamido)propanamide]
38 | > 20 µM | Cc1ncc(COc2ccc3nn(C)c(C(=O)NC4(CO)CC4)c3c2)s1 [Cpd 114, N-[1-(hydroxymethyl)cyclopropyl]-2-methyl-5-[(2-methyl-1,3-thiazol-5-yl)methoxy]-2H-indazole-3-carboxamide]
